Data on nine compounds can be found in patent WO2015077660A1, “Enzyme reactor system enabling enhanced enzymatic digestion, analyte solubility and improved mass spectrometric compatibility” (priority 2013, dated 2014).

One series relates to trypsin. As to the kind of experiment: Insulin digestion in immobilized enzyme reactor, buffer screening (Table 7). The note with it: IMER, 70°C, 60 s. The format is biochemical, porcine.
Another series has as its system T1, porcine trypsin.
T1 construct: purchased
The series can be described thus: Insulin digestion by trypsin in solution, buffer screening (Table 9). In kind it is biochemical. Particulars: 37°C, 18 h.

A further series relates to BSA. As to the kind of experiment: Screen of additives for prevention of aggregation (Table 5). The format is physicochemical, bovine. The note with it: additive concentration not given; 12.5 mg/mL BSA, 70°C; four columns in printed order, heads missing.

For the compound `NC(N)=O` [Urea], the Digested in the series with trypsin (0.5M) was found to be 1816572; in the series with trypsin (1M), 1448998; with trypsin (2M), 905391; with trypsin (4M), 285873; in the series with trypsin (6M), 139668; in the series with trypsin (8M), 43865. For the same compound, the Digested worked out at 1220686 in the series on porcine trypsin (0.5M); 1145096 in the series with porcine trypsin (1M); 1106227 in the series with porcine trypsin (2M); 860501 with porcine trypsin (4M); 529552 in the series with porcine trypsin (6M); 156492 in the series on porcine trypsin (8M). Further, the Peptide in the series on trypsin (0.5M) is reported as 715848; with trypsin (1M), 555954; with trypsin (2M) it was 349854; in the series on trypsin (4M) it was 104200; with trypsin (6M), 49088; in the series on trypsin (8M), 13979. The Peptide in the series with porcine trypsin (0.5M) came out at 538728; with porcine trypsin (1M), 511139; in the series with porcine trypsin (2M) it was 490181; in the series with porcine trypsin (4M) it was 389932; in the series with porcine trypsin (6M), 301136; in the series with porcine trypsin (8M), 69027. Also, the Undigested is on record as 2285541 in the series with trypsin (0.5M); 2812910 in the series on trypsin (1M); 3812799 with trypsin (2M); 4609299 in the series on trypsin (4M); 4675789 in the series with trypsin (6M); 4151508 with trypsin (8M). Further, the Undigested in the series with porcine trypsin (0.5M) is listed as 3763696; in the series on porcine trypsin (1M), 2972094; with porcine trypsin (2M), 3034093; in the series on porcine trypsin (4M), 2877527; with porcine trypsin (6M), 3250299; with porcine trypsin (8M), 2197015.

Turning to `[Cl-].[Na+]` [NaCl], the Digested stood at 2262987 with trypsin (0.1M); 2119184 in the series with trypsin (0.25M); 2146822 in the series with trypsin (0.5M); 2363025 in the series on trypsin (1M); 2660004 with trypsin (2M); 1527956 with porcine trypsin (0.1M). Further, the Digested was determined as 1178089 with porcine trypsin (0.25M), 884946 with porcine trypsin (0.5M), 670170 with porcine trypsin (1M) and 378641 in the series on porcine trypsin (2M). For the same compound, the Peptide with trypsin (0.1M) was 925368; in the series on trypsin (0.25M), 866812; in the series on trypsin (0.5M) it was 862093; in the series with trypsin (1M) it was 944511; in the series with trypsin (2M), 966823; in the series on porcine trypsin (0.1M) it was 648564. The Peptide in the series on porcine trypsin (0.25M) is reported as 484049; in the series with porcine trypsin (0.5M), 350436; in the series on porcine trypsin (1M) it was 249834; in the series with porcine trypsin (2M), 111600. Further, the Undigested with trypsin (0.1M) was 1557233; in the series on trypsin (0.25M) it was 2102900; with trypsin (0.5M), 1679944; in the series on trypsin (1M), 1205692; in the series with trypsin (2M) it was 332026; in the series on porcine trypsin (0.1M), 3295178. Further, the Undigested in the series with porcine trypsin (0.25M) was 3432057; in the series with porcine trypsin (0.5M), 4517343; with porcine trypsin (1M) it was 4981512; in the series on porcine trypsin (2M), 4745627.

Consider `C[C@H](CCC(=O)O)[C@H]1CC[C@H]2[C@@H]3CC[C@@H]4C[C@H](O)CC[C@]4(C)[C@H]3C[C@H](O)[C@]12C` [Deoxycholate], for which, in the series on BSA, the aggregation result is recorded as “Υ”.

Take `O=S(=O)(O)CCN1CCN(CCO)CC1` [HEPES]: in the series with trypsin (50 mM), the Digested is reported as 2438065, the Peptide was found to be 1040553 and the Undigested turned out to be 1152957. In the series with porcine trypsin (50 mM), this compound gave a Digested of 1758816, a Peptide of 758959 and an Undigested of 2816170.

Consider `CC#N` [ACN, acetonitrile], for which the Digested with trypsin (5%) is given as 1344796; with trypsin (10%), 719966; with trypsin (15%) it was 292205; in the series on trypsin (20%), 194140; with porcine trypsin (5%), 1409360; in the series with porcine trypsin (10%), 1676314. Further, the values for the Digested in the series with porcine trypsin (15%) and in the series on porcine trypsin (20%) were 1925305 and 2507679, respectively. Besides, the Peptide stood at 568057 with trypsin (5%); 309638 in the series with trypsin (10%); 116402 in the series with trypsin (15%); 86754 in the series on trypsin (20%); 625535 in the series with porcine trypsin (5%); 692364 with porcine trypsin (10%). Moreover, the Peptide with porcine trypsin (15%) worked out at 779339; with porcine trypsin (20%), 1020020. The Undigested came out at 3327305 in the series on trypsin (5%); 4860471 in the series on trypsin (10%); 5326017 in the series with trypsin (15%); 6433237 in the series on trypsin (20%); 5143004 with porcine trypsin (5%); 4742266 in the series on porcine trypsin (10%). Also, the values for the Undigested in the series on porcine trypsin (15%) and in the series on porcine trypsin (20%) were 2715010 and 3445401, respectively.

As for `CC(C)O` [IPA, isopropyl alcohol], the Digested came out at 696091 in the series on trypsin (5%); 208098 with trypsin (10%); 126129 with trypsin (15%); 135325 in the series with trypsin (20%); 1024085 with porcine trypsin (5%); 1133300 in the series on porcine trypsin (10%). Further, the Digested was determined as 906822 in the series with porcine trypsin (15%) and 954036 with porcine trypsin (20%). For the same compound, the Peptide with trypsin (5%) was determined as 291902; in the series with trypsin (10%), 86945; in the series with trypsin (15%) it was 52332; with trypsin (20%), 55155; in the series with porcine trypsin (5%), 407876; with porcine trypsin (10%), 418703. The Peptide in the series on porcine trypsin (15%) came to 322103; in the series on porcine trypsin (20%) it was 347874. Besides, the Undigested with trypsin (5%) is 4427643; in the series on trypsin (10%) it was 5774155; with trypsin (15%), 5930073; with trypsin (20%), 5148164; with porcine trypsin (5%) it was 3528233; in the series with porcine trypsin (10%), 3935383. Further, the values for the Undigested in the series with porcine trypsin (15%) and in the series on porcine trypsin (20%) were 4509078 and 4992140, respectively.

For `NC(CO)(CO)CO` [Tris], the Digested with trypsin (0.05M) worked out at 2479332; in the series on trypsin (0.1M), 2540889; in the series on trypsin (0.25M), 2440181; with trypsin (0.5M), 2205308; in the series on trypsin (1M), 1923103; in the series with porcine trypsin (0.05M), 1995427. Moreover, the Digested was 2524942 with porcine trypsin (0.1M), 3462464 in the series on porcine trypsin (0.25M), 3218135 in the series on porcine trypsin (0.5M) and 3458079 in the series with porcine trypsin (1M). Further, the Undigested is 893529 with trypsin (0.05M); 990996 with trypsin (0.1M); 1291934 in the series on trypsin (0.25M); 1490447 with trypsin (0.5M); 2177969 in the series with trypsin (1M); 3125626 in the series with porcine trypsin (0.05M). Moreover, the Undigested in the series on porcine trypsin (0.1M) is 2122289; in the series on porcine trypsin (0.25M) it was 997441; in the series on porcine trypsin (0.5M), 780101; with porcine trypsin (1M) it was 1156801. The Peptide was 879474 in the series on trypsin (0.5M); 745060 with trypsin (1M); 860551 with porcine trypsin (0.05M); 1101647 in the series on porcine trypsin (0.1M); 1564913 with porcine trypsin (0.25M); 1297337 in the series on porcine trypsin (0.5M). This compound came in with a Peptide in the series on porcine trypsin (1M) of 1431917.

Consider `CO` [MeOH, methanol], for which the Digested with trypsin (5%) was 1511720; in the series with trypsin (10%) it was 1001203; in the series with trypsin (15%), 675569; with trypsin (20%), 518131; in the series with porcine trypsin (5%) it was 1415794; with porcine trypsin (10%), 216568. Further, the Digested in the series on porcine trypsin (15%) is given as 1700395; in the series on porcine trypsin (20%) it was 1986863. Besides, the Peptide with trypsin (5%) amounted to 627591; with trypsin (10%) it was 417070; in the series on trypsin (15%), 277958; in the series with trypsin (20%), 213935; in the series with porcine trypsin (5%), 576911; in the series on porcine trypsin (10%) it was 88569. The results for the Peptide with porcine trypsin (15%) and in the series with porcine trypsin (20%) were 666807 and 756073, respectively. Also, the Undigested with trypsin (5%) is 2902781; in the series with trypsin (10%), 3946896; in the series on trypsin (15%) it was 5012221; in the series on trypsin (20%), 5268985; with porcine trypsin (5%) it was 5318134; in the series on porcine trypsin (10%), 4800365. The Undigested with porcine trypsin (15%) is listed as 4218905; in the series on porcine trypsin (20%), 3394642.

With `C[S+](C)[O-]` [DMSO, dimethylsulfoxide], the Digested was determined as 1804007 with trypsin (5%); 1483343 with trypsin (10%); 1058609 in the series on trypsin (15%); 722730 with trypsin (20%); 1193067 in the series with porcine trypsin (5%); 1185116 with porcine trypsin (10%). For the same compound, the Digested with porcine trypsin (15%) is recorded as 1233021; in the series with porcine trypsin (20%), 1215388. Also, the Peptide in the series with trypsin (5%) was determined as 719810; in the series on trypsin (10%) it was 618353; in the series on trypsin (15%), 437967; in the series on trypsin (20%) it was 296540; in the series on porcine trypsin (5%), 499051; in the series on porcine trypsin (10%) it was 442885. For the same compound, the results for the Peptide in the series with porcine trypsin (15%) and with porcine trypsin (20%) were 481657 and 467559, respectively. For the same compound, the Undigested in the series with trypsin (5%) was found to be 2280353; in the series with trypsin (10%), 2811668; with trypsin (15%), 3394971; in the series with trypsin (20%), 3631216; in the series with porcine trypsin (5%), 3219771; in the series with porcine trypsin (10%), 3803031. The Undigested with porcine trypsin (15%) is 4423224; in the series on porcine trypsin (20%) it was 4523186.
